Test results taken from patent US12448388B2, “PRMT5 inhibitors and uses thereof” (Gilead Sciences, Inc., priority 2023, dated 2025).
In brackets after ≈: the same amount, converted by molar mass. Where two headings read alike, the source gives them in different places.

Assays:
[1] = system: HCT116 MTAP-deleted cell lines; test: Cell viability assay (CellTiter-Glo, 7 days), HCT116 MTAP-deleted; assay type: cell-based; settings: for Selectivity: HCT116 WT CC50 versus HCT116 MTAP^del CC50; for plasma-adjusted CC50 (paCC50): paCC50 = CC50-HCT116-MTAP^del * (% free CCM/% free human plasma); for CC50: Homo sapiens, HCT116 MTAP-deleted
In short: (§1)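 CC50 values come from 7-day CellTiter-Glo viability measurements on cells exposed to a dose range of PRMT5 inhibitors dispensed from DMSO stocks.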

[2] = MDR1/BCRP assay: permeability in cPgp-KO-MDCK-WT cells; assay type: in vitro ADME; settings: dog, pH 7.4
Description: The cells were maintained in an incubator at 37° C., 90% humidity, and 5% CO2 until reaching confluence over 5 days in 96-well transwell plates. Experiments were conducted using an HBSS donor buffer (Invitrogen) containing 10 mM HEPES and 15 mM glucose, adjusted to pH 7.4. The receiver well contained HBSS buffer supplemented with 1% BSA, 10 mM HEPES, and 15 mM glucose, and the pH was adjusted to 7.4. TEER values were measured to assess membrane integrity after an initial equilibration with BSA-free transport buffer for 15 minutes. The experiment was started by adding dosing solutions containing test compounds at 1 μM. Cells were dosed on the apical (A) side or basolateral (B) side at 100 μl and 200 μl, respectively, to determine forward (A to B) and reverse (B to A) permeability. At the 2-hour time point, 50 μl samples were collected from the receiver compartment. Each compound was tested in 2 separate replicate wells for each condition. All samples were immediately collected into plates, and 50 μL of acetonitrile was added. Subsequently, 350 μl of 30:70 methanol: acetonitrile containing internal standard was added to precipitate proteins and stabilize the test compounds. To test for non-specific binding and compound instability, the total amount of the drug was quantified at the end of the experiment and compared to the material present in the original dosing solution as a percentage of the recovery. All samples were analyzed by LC-MS/MS using electrospray ionization.
The apparent permeability, Papp, and % recovery were calculated as follows: […]

[3] = Cell viability assay (CellTiter-Glo, 7 days), HCT116 WT; assay type: cell-based; settings: human, HCT116 WT cells, 7 days of treatment, CTG
In short: as §1

[4] = PBS solubility (kinetic solubility from DMSO stocks); assay type: physicochemical; settings: 22 °C, aqueous buffer, kinetic from dmso stock; 1x PBS pH 7.4, 1.0% DMSO, 24-hour incubation at ambient temperature
In short: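 Kinetic solubility in 1× PBS pH 7.4 with 1.0% final DMSO, maximum theoretical concentration 100 μM from 10 mM stock. After 24 h at ambient temperature (20.8-24.0 °C) the samples were vacuum-filtered and filtrates quantified by nitrogen detection against a calibration curve. Values were background-corrected and reported in μM and μg/mL.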

[5] = Hepatocyte stability assay, human; assay type: in vitro ADME; settings: human hepatocytes, 1 μM
Description: BioreclamationIVT (Baltimore, MD) provided the cryopreserved hepatocytes, hepatocyte thawing (HT) medium, and Krebs-Henseleit buffer (KHB) medium. The stock solution concentration was 1 M in DMSO and was then diluted further in acetonitrile/water (1:1 v/v). All other chemicals were purchased from Sigma-Aldrich (St. Louis, MO) or Thermo Fisher Scientific (Waltham, MA).
The quench solution used to stop reactions in the hepatocyte incubations was comprised of 100% (v/v) acetonitrile. Internal Standard/Quench (IS/Q) solution used to stop reactions with the positive control also contained 200 nM Labetalol.
Metabolic Stability in Cryopreserved Hepatocytes: Test compounds, or the positive control metabolic substrate, was incubated in suspensions of cryopreserved hepatocytes at a final concentration of 1 μM. Vials containing cryopreserved hepatocytes were removed from liquid nitrogen and immediately immersed in a 37° C. water bath. The vials were swirled gently until the contents had thawed. They were then immediately emptied into 48 mL of pre-warmed thawing medium in a 50 mL conical tube. Cells remaining in the vial were re-suspended with 1.0 mL of pre-warmed thawing medium and added to the conical tube. The tube was capped and then gently inverted several times to re-suspend the hepatocytes. The cell suspension was centrifuged at 500×g for 10 minutes at room temperature and the supernatant discarded. The cell pellet was loosened by gently swirling the centrifuge tube. Non-supplemented KHB medium was added to obtain the appropriate target cell density. The viabilities of all cell preparations were ≥85%, assessed by Trypan blue dye exclusion.
For incubations, aliquots of hepatocyte suspension (250 μL containing a cell concentration of 2×10^6 cells/mL) were added to 250 μL of 2 μM substrate (test compound or positive control) in supplemented KHB in duplicate wells in a 24-well plate. Final concentration in the incubations were 1×10^6 cells/mL and 1 μM substrate. A cell-free control incubation (KHB only) was also included. The incubations were carried out with gentle shaking in a 37° C. incubator under a humid atmosphere of 95% air/5% CO2 (v/v). Aliquots (100 μL) were removed after 0, 1, 3, and 6 hours and added to 200 μL quenching solution. The samples were then placed on a shaker for 10 min followed by centrifugation at 3000×g for 20 min. The supernatant was transferred to a new plate and diluted with 100 μL of water to reduce the organic content and then placed on a shaker for 10 mins. Samples were injected and analyzed with methods described below.
Liquid Chromatography: Quantification of positive control and test compound was performed by analyte/internal standard peak area ratios (PAR) measured on a Thermo Scientific™ Q Exactive™ Hybrid Quadrupole-Orbitrap Mass Spectrometer MS/MS with an electrospray interface operating in positive ion mode. The mass spectrometer was coupled to a Dionex Ultimate® 3000 HPLC system. Samples (10 μL aliquots) were injected with a Leap Technologies HTC PAL autosampler. For positive control, the column used was a Thermo Scientific™ Hypersil GOLD™ HPLC column ([…], 50×2.1 mm). Mobile phase A consisted of 95% (v/v) water, 5% (v/v) acetonitrile, and contained 0.1% (v/v) formic acid (FA). Mobile phase B consisted of 95% (v/v) acetonitrile, 5% (v/v) water, and contained 0.1% (v/v) FA. Elution was achieved, at a flow rate of 0.5 mL/min, by a series of linear gradients: initial condition was 5% B at 0 min, isocratic for 20 seconds; then linear gradient to 95% B over 90 seconds, followed by isocratic for 60 seconds at 95% B, and re-equilibrated to initial conditions over 70 seconds.
Metabolic stabilities of positive control and test compound were determined by measuring the rates of disappearance of the parent with time by determining the % of parent remaining at time t (Ct) {Obach 1997}.
Data (% of parent remaining) were plotted on a semi-log scale and fitted using an exponential fit: […]

[6] = HCT-116, 168 h, 7 days of treatment, CTG, read-out: CC50-HCT116-MTAP^del
[7] = HCT-116, cell viability, class symbols, read-out: CC50

| Papp A→B at 2 h, 1 µM [2] [×10⁻⁶ cm/s] | solubility at 24 h [4] [µM] | Human Predicted Hepatocyte CL [5] [mL/min/kg] | Structure (SMILES) | Selectivity [1] | plasma-adjusted CC50 (paCC50) ([1]; HCT-116) [nM] | CC50 [1, 6] [nM] | CC50 [1, 7] [nM] | CC50 at 7 days [3] [nM] |
| --- | --- | --- | --- | --- | --- | --- | --- | --- |
| 14.7 | < 1 | 1.2 | Cc1ncc2c(N)nc3cnc(C(=O)N4CCC[C@@H]5Oc6cc(C(F)(F)F)ccc6[C@@H]54)cc3n12 [Ff-344, (4-amino-1-methylimidazo[1,5-a]pyrido[3,4-e]pyrazin-8-yl)((4aS,9bS)-7-(trifluoromethyl)-3,4,4a,9b-tetrahydrobenzofuro[3,2-b]pyridin-1(2H)-yl)methanone] | 85 | 476 | 27 | < 100 | 2300 |
| 9 | 25.2 (≈ 11.9 µg/mL) | 0.83 | Nc1nc2cc(F)c(C(=O)N3CC[C@H]4C[C@@H]3c3ccc(C(F)(F)F)nc3O4)cc2n2cncc12 [Ff-366, (4-amino-7-fluoroimidazo[1,5-a]quinoxalin-8-yl)((2S,6R)-9-(trifluoromethyl)-3,4-dihydro-2H-2,6-methanopyrido[2,3-b][1,5]oxazocin-5(6H)-yl)methanone] | 75 | 206 | 29 | < 100 | 2170 |
| 21 | 2.9 (≈ 1.41 µg/mL) | 4.5 | Cc1ncc2c(N)nc3cnc(C(=O)N4CC[C@H]5C[C@@H]4c4cc(F)c(C(F)(F)F)cc4O5)cc3n12 [Ff-696, (4-amino-1-methylimidazo[1,5-a]pyrido[3,4-e]pyrazin-8-yl)((2S,6R)-8-fluoro-9-(trifluoromethyl)-3,4-dihydro-2H-2,6-methanobenzo[b][1,5]oxazocin-5(6H)-yl)methanone] | 83 | 198 | 17 | – | 1410 |
| 19.3 | < 1 | 4.67 | Cc1ncc2c(N)nc3cnc(C(=O)N4CCC[C@@H]5Oc6cc(OC(F)(F)F)cc(F)c6[C@@H]54)cc3n12 [Fg-66, (4-amino-1-methylimidazo[1,5-a]pyrido[3,4-e]pyrazin-8-yl)((4aS,9bS)-9-fluoro-7-(trifluoromethoxy)-3,4,4a,9b-tetrahydrobenzofuro[3,2-b]867yridine-1(2H)-yl)methanone] | 116 | 788 | 72 | – | 8370 |
| 18.5 | 1.7 (≈ 0.827 µg/mL) | 4 | Cc1ncc2c(N)nc3cnc(C(=O)N4CCC[C@@H]5Oc6cc(C(F)(F)F)cc(F)c6[C@@H]54)cc3n12 [Fg-67, (4-amino-1-methylimidazo[1,5-a]pyrido[3,4-e]pyrazin-8-yl)((4aS,9bS)-9-fluoro-7-(trifluoromethyl)-3,4,4a,9b-tetrahydrobenzofuro[3,2-b]pyridin-1(2H)-yl)methanone] | 112 | 402 | 38 | – | 4260 |
